Bounds are passed on as bounds.

This test deals with NLRP3 inflammasome. The test is described as follows: IL-1β Secretion Assay (NLRP3-dependent IL-1β secretion in PMA-differentiated THP-1 cells, nigericin activation, HTRF). The format is cell-based. As to conditions: Homo sapiens, THP-1, THP-1 cells, 100 ng/mL PMA 24 h, compound 20 h, 2.5 μM Nigericin 3 h; read-out: IC50 IL-1β Inhibition. The procedure:
Cells were washed 1× with 100 ul PBS and replaced with fresh RPMI+5% FBS. Compounds were serial diluted in DMSO with 3 fold dilution for a total of 7 concentrations.
Compounds, once produced and prepared according to the present invention, can be assessed in variety of assays to characterize their activities. […] IC50 values of IL1β inhibition were calculated from the plot of percentage of inhibition versus the inhibitor concentration by a logistics fit. TABLE I depict examples of compounds according to generic Formulae I. Data which is <1 nM is listed as *****; data 1-10 nM is listed as ****; data 10-100 nM is listed as ***, data 100-300 nM is listed as **, data >300 nM is listed as *.
For orientation: TR-FRET usually uses a lanthanide donor and a delayed reading to cut background.
The term IC50 denotes the point on the concentration scale where inhibition reaches its midpoint. In the case of `CN1CCCC(Cc2nnc(-c3ccc(C(F)(F)F)cc3O)c3cnccc23)C1` (stereo not shown) [Compound I-118, 2-(1-((1-Methylpiperidin-3-yl)methyl)pyrido[3,4-d]pyridazin-4-yl)-5-(trifluoromethyl)phenol], the IC50 is 0.001 to 0.01 µM. With `COc1cc(C(F)(F)F)ccc1-c1nnc(N[C@@H]2CCCN(C)C2)c2cnccc12` [Compound I-119] the figure was 0.001 to 0.01 µM; with `CN1CCC[C@@H](Nc2nnc(-c3ccc(C(F)(F)F)cc3OC(F)F)c3ccccc23)C1` [Compound I-120], 0.001 to 0.01 µM; with `CN1CCC[C@@H](Nc2nnc(-c3ccc(C(F)(F)F)cc3OC(F)F)c3ccncc23)C1` [Compound I-121], < 0.001 µM. With `CN1CCC[C@@H](Nc2nnc(-c3ccc(C(F)(F)F)cc3OC(F)F)c3cnccc23)C1` [Compound I-122] the figure was 0.001 to 0.01 µM. With `CN1CCC[C@@H](Nc2nnc(-c3ccc(C(F)(F)F)cc3N)c3ccccc23)C1` [Compound I-123] the figure was 0.001 to 0.01 µM. In the case of `CN1CCC[C@@H](Nc2nnc(-c3ccc(C(F)(F)F)cc3NS(C)(=O)=O)c3ccccc23)C1` [Compound I-124], the half-maximal inhibitory concentration (IC50) fell in the range of 0.001 to 0.01 µM.

On to `CNc1cc(C(F)(F)F)ccc1-c1nnc(N[C@@H]2CCCN(C)C2)c2ccccc12` [Compound I-125], for which the IC50 lay in the range of 0.001 to 0.01 µM. On to `CC(=O)Nc1cc(C(F)(F)F)ccc1-c1nnc(N[C@@H]2CCCN(C)C2)c2ccccc12` [Compound I-126], for which the IC50 fell in the range of 0.001 to 0.01 µM.

As for `CN1CCC[C@@H](Nc2nnc(-c3ccc(C(F)(F)F)cc3F)c3ccccc23)C1` [Compound I-127], the half-maximal inhibitory concentration (IC50) was 0.001 to 0.01 µM. With `CN1CCC[C@@H](Nc2nnc(-c3ccc(C(F)(F)F)cc3F)c3ccncc23)C1` [Compound I-128] the figure was 0.001 to 0.01 µM; with `CN1CCC[C@@H](Nc2nnc(-c3ccc(Cl)cc3F)c3ccncc23)C1` [Compound I-129], < 0.001 µM.

As to `CN1CCC[C@@H](Nc2nnc(-c3ccc(C(F)(F)F)cc3C#N)c3ccncc23)C1` [Compound I-130], the IC50 fell in the range of 0.001 to 0.01 µM.

Take `CN1CCC[C@@H](Nc2nnc(-c3ccc(C(F)(F)F)cc3C#N)c3ccccc23)C1` [Compound I-131]: the IC50 lay within 0.001 to 0.01 µM. The figure for `CN1CCC[C@@H](Nc2nnc(-c3ccc(Cl)cc3OC(F)F)c3ccncc23)C1` [Compound I-132] is < 0.001 µM; for `CN1CCC[C@@H](Nc2nnc(-c3ccc(Cl)cc3OC(F)F)c3ccccc23)C1` [Compound I-133] it is 0.001 to 0.01 µM; for `Cc1ccc(-c2nnc(N[C@@H]3CCCN(C)C3)c3cnccc23)c(OC(F)F)c1` [Compound I-134] it is 0.001 to 0.01 µM. The figure for `Cc1ccc(-c2nnc(N[C@@H]3CCCN(C)C3)c3ccccc23)c(OC(F)F)c1` [Compound I-135] is 0.001 to 0.01 µM. As for `Cc1ccc(-c2nnc(N[C@@H]3CCCN(C)C3)c3cnccc23)c(C#N)c1` [Compound I-136], the concentration for half-maximal inhibition (IC50) is 0.001 to 0.01 µM.

As for `CN1CCC[C@@H](Nc2nnc(-c3ccc(-n4nccn4)cc3O)c3ccncc23)C1` [Compound I-137], the half-inhibitory concentration (IC50) was < 0.001 µM. The figure for `CN1CCC[C@@H](Nc2nnc(-c3ccc(C(F)(F)F)cc3C(F)F)c3ccncc23)C1` [Compound I-138] is 0.001 to 0.01 µM.

As for `CN1CCC[C@H](Nc2nnc(-c3c(O)cccc3Cl)c3ccncc23)C1` [Compound I-139], the IC50 was 0.001 to 0.01 µM.

Consider `CN1CCC[C@@H](Nc2nnc(-c3c(O)cccc3C#N)c3ccncc23)C1` [Compound I-140], for which the 50% inhibitory concentration (IC50) lay in the range of 0.001 to 0.01 µM.

Regarding `CN1CCC[C@@H](Nc2nnc(-c3ccc(C(F)(F)F)cc3Cl)c3ccncc23)C1` [Compound I-143, (R)-1-(2-Chloro-4-(trifluoromethyl)phenyl)-N-(1-methylpiperidin-3-yl)pyrido[3,4-d]pyridazin-4-amine], the IC50 is 0.001 to 0.01 µM. The figure for `COc1cc(C(F)(F)F)ccc1-c1nnc(N[C@@H]2CCCN(C)C2)c2c1cnn2C` [Compound I-144, 4-[2-Methoxy-4-(trifluoromethyl)phenyl]-1-methyl-N-[(3R)-1-methyl-3-piperidyl]pyrazolo[3,4-d]pyridazin-7-amine] is 0.001 to 0.01 µM. With `CN1CCC[C@@H](Nc2nnc(-c3ccc(C(F)(F)F)cc3C3=CCOC3)c3ccncc23)C1` [Compound I-145] the figure was 0.001 to 0.01 µM; with `CN1CCC[C@@H](Nc2nnc(-c3ccc(C(F)(F)F)cc3O)c3cnn(C)c23)C1` [Compound I-146, 2-[1-Methyl-7-[[(3R)-1-methyl-3-piperidyl]amino]pyrazolo[3,4-d]pyridazin-4-yl]-5-(trifluoromethyl)phenol], < 0.001 µM; with `C[C@@H]1COCCN1CCNc1nnc(-c2ccc(C(F)(F)F)cc2O)c2ccccc12` [Compound I-147], 0.01 to 0.1 µM. For `C[C@H]1COCCN1CCNc1nnc(-c2ccc(C(F)(F)F)cc2O)c2ccccc12` [Compound I-148], the concentration for half-maximal inhibition (IC50) fell in the range of 0.01 to 0.1 µM. The figure for `Oc1cc(C(F)(F)F)ccc1-c1nnc(NCC2CCN2)c2ccccc12` (stereo not shown) [Compound I-150] is 0.01 to 0.1 µM; for `CN1C[C@H](F)C[C@@H](Nc2nnc(-c3ccc(C(F)(F)F)cc3O)c3ccccc23)C1` [Compound I-151] it is < 0.001 µM. As to `CN(C)C1CCCN(c2nnc(-c3ccc(C(F)(F)F)cc3O)c3cnccc23)C1` (stereo not shown) [Compound I-152], the 50% inhibitory concentration (IC50) lay within 0.001 to 0.01 µM. The figure for `COc1cc(C(F)(F)F)ccc1-c1nnc(N2CCNCC2)c2ccncc12` [Compound I-153] is 0.01 to 0.1 µM; for `CN1CCC[C@@H](Nc2nnc(-c3ccc(C(F)(F)F)cc3O)c3c2N(C)CCC3)C1` [Compound I-154] it is 0.001 to 0.01 µM. With `CN1CCC[C@H](Nc2nnc(-c3ccc(Cl)cc3O)c3c2N(C)CCC3)C1` [Compound I-155] the figure was 0.001 to 0.01 µM.

Turning to `CN1CCC[C@@H](Nc2nnc(-c3ccc(C(F)(F)F)cc3S(N)(=O)=O)c3ccncc23)C1` [Compound I-156, (R)-2-(4-((1-methylpiperidin-3-yl)amino)pyrido[3,4-d]pyridazin-1-yl)-5-(trifluoromethyl)benzene-sulfonamide], the IC50 lay within 0.1 to 0.3 µM. The figure for `CN1CCC[C@@H](Nc2nnc(-c3ccc(Cl)cc3C#N)c3ccncc23)C1` [Compound I-157] is 0.001 to 0.01 µM; for `CN1CCC[C@@H](Nc2nnc(-c3ccc(C4CC4)cc3C(F)(F)F)c3ccncc23)C1` [Compound I-158] it is < 0.001 µM; for `Cc1cncc(-c2nnc(N[C@@H]3CCCN(C)C3)c3ccccc23)c1O` [Compound I-159] it is 0.1 to 0.3 µM.

On to `COc1nc(C)ccc1-c1nnc(N[C@@H]2CCCN(C)C2)c2ccccc12` [Compound I-160], for which the half-inhibitory concentration (IC50) was 0.1 to 0.3 µM. With `CN1CCN(CCNc2nnc(-c3ccc(C(F)(F)F)cc3O)c3ccccc23)CC1` [Compound I-161] the figure was 0.01 to 0.1 µM; with `COc1cc(C(F)(F)F)ccc1-c1nnc(N2CCCC(N(C)C)C2)c2ccncc12` (stereo not shown) [Compound I-162], 0.01 to 0.1 µM. With `CN1CCC[C@@H](Nc2nnc(-c3ccc(Cl)c(N)c3O)c3ccccc23)C1` [Compound I-163, (R)-2-Amino-3-chloro-6-(4-((1-methylpiperidin-3-yl)amino)phthalazin-1-yl)phenol] the figure was 0.01 to 0.1 µM; with `CN1C[C@@H](F)C[C@H](Nc2nnc(-c3ccc(C(F)(F)F)cc3O)c3ccccc23)C1` [Compound I-164], 0.01 to 0.1 µM. In the case of `Cc1ccc(-c2nnc(N[C@@H]3CCCN(C)C3)c3ccccc23)c(F)c1F` [Compound I-165], the concentration for half-maximal inhibition (IC50) is 0.01 to 0.1 µM. For `CN1CCC[C@@H](Nc2nnc(-c3ccc(C(F)(F)F)cc3)c3ccncc23)C1` [Compound I-166], the IC50 fell in the range of 0.001 to 0.01 µM. Turning to `CN1CCC[C@@H](Nc2nnc(-c3ccc(C#N)cc3OC(F)F)c3ccncc23)C1` [Compound I-167], the IC50 lay in the range of 0.01 to 0.1 µM. For `Cc1cccc(-c2nnc(N[C@@H]3CCCN(C)C3)c3cnccc23)c1OC(F)F` [Compound I-168], the IC50 was 0.01 to 0.1 µM. For `CNS(=O)(=O)c1cc(C(F)(F)F)ccc1-c1nnc(N[C@@H]2CCCN(C)C2)c2cnccc12` [Compound I-169], the half-inhibitory concentration (IC50) fell in the range of 0.01 to 0.1 µM. Take `CN1CCC[C@@H](Nc2nnc(-c3c(O)cc(Cl)cc3F)c3ccncc23)C1` [Compound I-170]: the 50% inhibitory concentration (IC50) was < 0.001 µM. The figure for `COc1ccc(-c2nnc(N[C@@H]3CCCN(C)C3)c3cnccc23)c(OC(F)F)c1` [Compound I-171] is < 0.001 µM. With `CN1CCC[C@@H](Nc2nnc(-c3ncc(Cl)cc3O)c3ccncc23)C1` [Compound I-172] the figure was 0.001 to 0.01 µM; with `COCOc1cc(-c2ncco2)ccc1-c1nnc(N[C@H]2CCCN(C)C2)c2cnccc12` [Compound I-173], 0.01 to 0.1 µM; with `Cn1cc(CNc2nnc(-c3ccc(C(F)(F)F)cc3O)c3ccncc23)cn1` [Compound I-174], 0.01 to 0.1 µM. The figure for `COc1ccc(-c2nnc(N[C@@H]3CCCN(C)C3)c3cnccc23)c(O)c1` [Compound I-175] is < 0.001 µM; for `CN1CCC[C@H](Nc2nnc(-c3ccc(-c4ncco4)cc3O)c3ccncc23)C1` [Compound I-176] it is 0.001 to 0.01 µM; for `CN1CCC[C@@H](Nc2nnc(-c3ccc(C(F)(F)F)cc3C(F)(F)F)c3ccncc23)C1` [Compound I-177] it is 0.001 to 0.01 µM. In the case of `Cc1cc(OC(F)F)c(-c2nnc(N[C@@H]3CCCN(C)C3)c3cnccc23)cc1F` [Compound I-178], the 50% inhibitory concentration (IC50) lay in the range of 0.001 to 0.01 µM. The figure for `Cc1cc(O)c(-c2nnc(N[C@@H]3CCCN(C)C3)c3cnccc23)c(F)c1` [Compound I-179] is < 0.001 µM; for `Cn1cc(Nc2nnc(-c3ccc(C(F)(F)F)cc3O)c3ccncc23)cn1` [Compound I-180] it is 0.001 to 0.01 µM. Consider `COc1ccc(-c2nnc(N[C@@H]3CCCN(C)C3)c3cnccc23)c(C(F)(F)F)c1` [Compound I-181], for which the IC50 was 0.001 to 0.01 µM.

The values above are taken from patent publication US20240262806A1, “INHIBITORS OF NLRP3” (PTC THERAPEUTICS, INC., priority 2021, published 2024).
